Test results reported in publication PMC6828666, “Discovery of holoenzyme-disrupting chemicals as substrate-selective CK2 inhibitors” (Scientific Reports, 2019).
Counter-ions that a name gives are not always drawn.

What was measured:
CK2α = CK2α (Homo sapiens, UniProt P68400); assay: SPR binding studies on captured GST-CK2α; conditions: surface plasmon resonance
Description: SPR competition studies (Fig. 2i) were performed using a BIAcore 3000 instrument (BIAcore AB) equipped with a CM5 sensor chip (BIAcore AB). After activation with a solution of N-hydroxysuccinimide and N-ethyl-N-(dimethylaminopropyl)carbodiimide hydrochloride (coupling solution BIAcore AB), the anti-GST antibody diluted at 30 μg/ml in 10 mM acetate buffer pH 5.0 was injected at a flow rate of 5 μL/min for 7 min. All the surfaces were blocked with a 3 min injection at 10 μL/min of 1 M ethanolamine, pH 8.0. GST-CK2α (50 μg/ml) was immobilized on the surface at a flow rate of 5 μL/min in HBS (10 mM Hepes pH 7.3, 0.15 M NaCl, 3 mM EDTA, 0.005% polysorbate 20). MBP-CK2β diluted at 50 μg/ml in HBS buffer was injected over the surface at a flow rate of 5 μL/min in presence of various compound 1 concentration. Regeneration of the surfaces was achieved by injection of 10 mM glycine-HCl pH 2.2. SPR binding studies (Supplementary Fig. S7) were performed using a Reichert SR7000DC instrument optical biosensor (Reichert Technologies) equipped with a CMD500m sensor chip obtained from XanTec Bioanalytics. CK2α was immobilized by a capturing approach using a monoclonal anti-GST antibody (27 kDa, Clone GST-R 6G9 produced in rat, SAB4200055 Sigma Aldrich). Prior to use, the anti-GST antibodies were purified twice by micro dialysis at 4 °C (Membrane: dialysis tubing benzoylated, 9 mm, D2272-5FT) in 10 mM sodium acetate, pH = 5. Anti-GST antibodies were immobilized using amine-coupling chemistry at 12 °C. The surfaces of all two flow cells were activated for 7 min with a 1:1 mixture of 0.1 M NHS (N-hydroxysuccinimide) and 0.1 M EDC (3-(N,N-dimethylamino) propyl-N-ethylcarbodiimide) at a flow rate of 10 μL/min. The antibody at a concentration of 30 μg/mL in 10 mM sodium acetate, pH 5.0, was immobilized at a density of 2000 RU on flow cell 2; flow cell 1 was left blank to serve as a reference surface. All the surfaces were blocked with a 3 min injection at 10 μL/min of 1 M ethanolamine, pH 8.0. GST tagged CK2α at a concentration of 50 μg/mL in 10 mM HEPES, 150 mM NaCl, 3 mM EDTA, 0.005% (v/v) polysorbate 20, pH = 7.4 was captured at a density of 900 RU on flow cell 2. In order to collect kinetic binding data, analytes in 10 mM HEPES, 150 mM NaCl, 3 mM EDTA, 0.005% (v/v) polysorbate 20, 1% DMSO (v/v), 100 μM ATP, pH = 7.4 were injected over the two flow cells at concentrations of 50, 25, 12.5, 6.25, 3.12, 1.56 μM at a flow rate of 25 μL/min and at a temperature of 25 °C. The complex was allowed to associate and dissociate for 120 s. Duplicate injections (in random order) of each sample and a buffer blank were flowed over the two surfaces. Affinities were obtained after treatments (DMSO calibration, blank and references subtractions) using the software Scrubber 2.0c.
Fig. S7. Binding kinetics of compounds 2-6 by surface plasmon resonance. For each compound, sensorgrams (black line) and global fits (orange line) are depicted with the corresponding chemical structure and the fitted kinetics parameters. Experiments show representative data of two identical repeats.

CK2α2β2 holoenzyme = biological target: T1, CK2α2β2 holoenzyme (Homo sapiens, UniProt P68400); assay: CK2 kinase assay with CK2β-dependent peptide substrate (eIF2-derived); assay type: biochemical; conditions: compound at 50 μM; CK2β-dependent peptide substrate
T1 construct: made in house; host or cells: Escherichia coli (CK2α)
Description: First, all the compounds were dissolved at 200 μM in 50 mM Tris-HCl pH 7.5 buffer containing 0.1 M NaCl and 5% DMSO; the compounds that precipitated under these conditions were discarded. The 32 remaining compounds were diluted at 200 μM in the kinase buffer and centrifuged at 14,000 g. The supernatant was then assayed for ability to inhibit phosphorylation of a CK2β-dependent peptide substrate. For this, a 22-residue long N-terminal fragment of the eukaryotic translation initiation factor 2 (eIF2), known to be exclusively phosphorylated by the CK2α2β2 holoenzyme[4] was used as a substrate. […]
Final concentration of ATP was 100 μM. Assays were performed under linear kinetic conditions for 5 min at room temperature before termination by the addition of 60 μL of 4% TCA. ^32P incorporation in peptide substrate was determined as previously described. […]

[1] = biological target: [35S]methionine-labeled CK2α (human) (UniProt P68400); assay: radioligand binding; biotinylated MBP-CK2β (250 ng/well) on streptavidin-coated 96-well plates; soluble [35S]methionine-labeled CK2α (10^5 cpm) with or without competitor; 50 mM Tris/HCl pH 7.2, 0.4 M NaCl; 1 h at room temperature, washed three times, scintillation counting
MCF10A cells = assay: Cell growth inhibition (IncuCyte); assay type: cell-based, human; conditions: 24 h
Description: Cells grown on 96-well flat-bottomed plates (Corning Falcon) were tracked using an Essen IncuCyte Zoom live-cell microscopy instrument, an automated live cell imager with high-throughput capabilities and built-in data analysis. Experiments were conducted at 37 °C and 5% CO2. The software incorporated into the IncuCyte Zoom was used to analyze the images.
MCF10A and MDA-MB231 cells were seeded into 96-well plates at a density (1 × 10^4 and 2 × 10^4 cells/well, respectively) and allowed to attach overnight. Bright field images were captured every 3 h for the duration of the experiment. The detection software was calibrated specifically for MCF10A and MDA-MB231 to ensure accurate distinction of cells from empty space. Cell proliferation data were obtained by the cell confluence increment in each of the treatments and expressed as percentage relative to that of control cells.
Fig. S9. […] (a) MCF10A cells were incubated with increasing concentrations of 6 for 24 h. (b) Inset: western blot analysis of CK2 subunits in parental MCF10A cells (WT) or CK2β knockdown MCF10A cells (∆CK2β). Uncropped blots are shown in Supplementary Fig. S16. MCF10A WT (r,p) or MCF10A ∆CK2β (○,●) were incubated with DMSO (r,○) or 50 μM 6 (p,●) for the indicated time. Cell growth was monitored using an Essen IncuCyte Zoom live-cell microscopy incubator. Images were captured every 15 min for the duration of the experiment. […]

[2] = tested on: panels of different kinases; set-up: method as in PMID 28451126; conditions: cited from earlier work

Chain of CK2α (P68400 whole entry): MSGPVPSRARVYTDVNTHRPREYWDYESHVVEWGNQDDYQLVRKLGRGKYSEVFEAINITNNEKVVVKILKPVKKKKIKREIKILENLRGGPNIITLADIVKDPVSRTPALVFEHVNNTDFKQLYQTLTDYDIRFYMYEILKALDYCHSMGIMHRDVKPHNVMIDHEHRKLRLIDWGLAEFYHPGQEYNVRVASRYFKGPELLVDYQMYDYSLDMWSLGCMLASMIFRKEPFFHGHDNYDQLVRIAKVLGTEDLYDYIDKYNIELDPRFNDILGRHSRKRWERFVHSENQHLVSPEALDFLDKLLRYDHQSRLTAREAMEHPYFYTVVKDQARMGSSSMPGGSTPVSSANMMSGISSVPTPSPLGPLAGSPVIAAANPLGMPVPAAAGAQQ
T1 sequence (P68400 whole entry): as above
Chain of [35S]methionine-labeled CK2α (human) (P68400 whole entry): as above

| Kd (CK2α) [µM] | inhibition at 50 µM (CK2α2β2 holoenzyme) [%] | Molecule | also measured |
| --- | --- | --- | --- |
| 43 ± 2 | 66 | O=C(OCC1CCN(CCNS(=O)(=O)c2ccccc2)CC1)c1c[nH]c2ccc(F)cc12 [Compound 5, (1-(2-(Phenylsulfonamido)ethyl)piperidin-4-yl)methyl 5-fluoro-1H-indole-3-carboxylate hydrochloride] | – |
| – | – | CK2β-derived cyclic peptide, Pc | percent inhibition of CK2α/CK2β complex formation at 60 μM [1]: 90% |
| 44 ± 6 | 25 | CS(=O)(=O)NCCN1CCC(COC(=O)c2c[nH]c3ccc(F)cc23)CC1 [Compound 2, (1-(2-(Methylsulfonamido)ethyl)piperidin-4-yl)methyl 5-fluoro-1H-indole-3-carboxylate hydrochloride] | – |
| – | – | O=C(O)c1ccc2c(c1)nc(Nc1cccc(Cl)c1)c1ccncc12 [CX-4945] | Gini coefficient [2]: 0.62 |

| Molecule | Kd (CK2α) [µM] | inhibition at 50 µM (CK2α2β2 holoenzyme) [%] | also measured |
| --- | --- | --- | --- |
| COc1[nH]c2ccc(F)cc2c1C(=O)OCC1CCN(CCNS(=O)(=O)c2ccccc2)CC1.Cl [Compound 6, 1-(2-(Phenylsulfonamido)ethyl)piperidin-4-yl)methyl 5-fluoro-2-methoxy-1H-indole-3-carboxylate hydrochloride] | 30 ± 2 | – | GI50 (MCF10A cells): 22 ± 3 µM |
